Patent publication US8450527B2, “Amine derivative compounds for treating ophthalmic diseases and disorders” (Acucela Inc., priority 2007, dated 2013)

Key:
visual cycle isomerase = target: T1, visual cycle isomerase (Bos taurus, UniProt Q28175); assay: In vitro isomerase inhibition assay, bovine RPE microsome membranes; assay type: biochemical; conditions: inhibition of 11-cis retinol formation; values given as ranges
T1 construct: Bovine Retinal Pigment Epithelium (RPE) microsome membranes were the source of a visual cycle isomerase; from tissue; host or cells: bovine retinal pigment epithelium microsome membranes; CRALBP made in E. coli
T1 sequence (Q28175 2-533 limits assumed): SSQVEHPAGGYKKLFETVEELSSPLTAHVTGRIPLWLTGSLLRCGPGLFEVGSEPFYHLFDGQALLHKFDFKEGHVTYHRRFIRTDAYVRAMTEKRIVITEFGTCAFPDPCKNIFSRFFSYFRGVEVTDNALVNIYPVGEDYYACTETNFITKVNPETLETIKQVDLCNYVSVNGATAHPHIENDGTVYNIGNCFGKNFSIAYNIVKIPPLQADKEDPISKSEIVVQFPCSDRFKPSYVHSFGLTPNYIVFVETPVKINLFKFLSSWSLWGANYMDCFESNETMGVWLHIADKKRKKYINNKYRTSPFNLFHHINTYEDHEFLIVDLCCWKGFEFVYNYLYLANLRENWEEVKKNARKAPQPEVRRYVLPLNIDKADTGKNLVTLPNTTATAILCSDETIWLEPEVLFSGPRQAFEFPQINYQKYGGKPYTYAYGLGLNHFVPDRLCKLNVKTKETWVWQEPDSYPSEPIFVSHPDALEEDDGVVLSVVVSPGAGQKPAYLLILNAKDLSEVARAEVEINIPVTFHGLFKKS
Protocol: The capability of amine derivative compounds to inhibit the activity of a visual cycle isomerase was determined
Isomerase inhibition reactions were performed essentially as described (Stecher et al., J. Biol. Chem. 274:8577-85 (1999); see also Golczak et al., Proc. Natl. Acad. Sci. USA 102:8162-67 (2005)). Bovine Retinal Pigment Epithelium (RPE) microsome membranes were the source of a visual cycle isomerase.
Bovine RPE microsome membrane extracts were prepared according to methods described (Golczak et al., Proc. Natl. Acad. Sci. USA 102:8162-67 (2005)) and stored at −80° C. Crude RPE microsome extracts were thawed in a 37° C. water bath, and then immediately placed on ice. 50 ml crude RPE microsomes were placed into a 50 ml Teflon-glass homogenizer (Fisher Scientific, catalog no. 0841416M) on ice, powered by a hand-held DeWalt drill, and homogenized ten times upand down on ice under maximum speed. This process was repeated until the crude RPE microsome solution was homogenized. The homogenate was then subjected to centrifugation (50.2 Ti rotor (Beckman, Fullerton, Calif.), 13,000 RPM; 15360 Rcf) for 15 minutes at 4° C. The supernatant was collected and subjected to centrifugation at 42,000 RPM (160,000 Rcf; 50.2 Ti rotor) for 1 hour at 4° C. The supernatant was removed, and the pellets were suspended in 12 ml (final volume) cold 10 mM MOPS buffer, pH 7.0. The resuspended RPE membranes in 5 ml aliquots were homogenized in a glass-to-glass homogenizer (Fisher Scientific, catalog no.K885500-0021) to high homogeneity. Protein concentration was quantified using the BCA protein assay according to the manufacturer's protocol (Pierce, Rockford, Ill.). The homogenized RPE preparations were stored at −80° C.
Recombinant human apo cellular retinaldehyde-binding protein (CRALBP) was cloned and expressed according to standard methods in the molecular biology art (see Crabb et al., Protein Science 7:746-57 (1998); Crabb et al., J. Biol. Chem. 263:18688-92 (1988)). Briefly, total RNA was prepared from confluent ARPE^19 cells (American Type Culture Collection, Manassas, Va.), cDNA was synthesized using an oligo(dT)12-18 primer, and then DNA encoding CRALBP was amplified by two sequential polymerase chain reactions (see Crabb et al., J. Biol. Chem. 263:18688-92 (1988); Intres, et al., J. Biol. Chem. 269:25411-18 (1994); GenBank Accession No. L34219.1). The PCR product was sub-cloned into pTrcHis2-TOPO TA vector according to the manufacturer's protocol (Invitrogen Inc., Carlsbad, Calif.; catalog no. K4400-01), and then the sequence was confirmed according to standard nucleotide sequencing techniques. Recombinant 6×His-tagged human CRALBP was expressed in One Shot TOP 10 chemically competent E. coli cells (Invitrogen), and the recombinant polypeptide was isolated from E. coli cell lysates by nickel affinity chromatography using nickel (Ni) Sepharose XK16-20 columns for HPLC (Amersham Bioscience, Pittsburgh, Pa.; catalog no.17-5268-O2). The purified 6×His-tagged human CRALBP was dialyzed against 10 mM bis-tris-Propane (BTP) and analyzed by SDS-PAGE. The molecular weight of the recombinant human CRALBP was approximately 39 kDal.
Amine derivative compounds and control compounds were reconstituted in ethanol to 0.1 M. Ten-fold serial dilutions (10^−2, 10^−3, 10^−4, 10^−5, 10^−6 M) in ethanol of each compound were prepared for analysis in the isomerase assay.
The isomerase assay was performed in 10 mM bis-tris-propane (BTP) buffer, pH 7.5, 0.5% BSA (diluted in BTP buffer), 1 mM sodium pyrophosphate, 20 μM all-trans retinol (in ethanol), and 6 μM apo-CRALBP. The test compounds (2 μl) (final 1/15 dilution of serial dilution stocks) were added to the above reaction mixture to which RPE microsomes were added. The same volume of ethanol was added to the control reaction (absence of test compound). Bovine RPE microsomes (9 μl) (see above) were then added, and the mixtures transferred to 37° C. to initiate the reaction (total volume=150 μl). […]

[1] = tested on: retinoid nuclear receptors (RAR and RxR); assay: Retinoid nuclear receptor activity

SMILES	IC50 (visual cycle isomerase)	effects on retinoid nuclear receptors (RAR and RxR) [1]
CCCC(O)(CCC)CCc1cccc(CCCN)c1 [Example 3, 4-(3-(3-aminopropyl)phenethyl)heptan-4-ol]	≤ 1 µM	
NCCCc1cccc(CCC2(O)CCCCC2)c1 [Example 7, 1-(3-(3-aminopropyl)phenethyl)cyclohexanol]	≤ 1 µM	did not show significant effects
NCCOc1cccc(CCC2(O)CCCCCC2)c1 [Example 10, 1-(3-(2-aminoethoxy)phenethyl)cycloheptanol]	≤ 1 µM	
NCCC(O)c1cccc(CCC2(O)CCCCC2)c1 (stereo not drawn) [Example 15, 1-(3-(3-amino-1-hydroxypropyl)phenethyl)cyclohexanol]	≤ 1 µM	
NCCC(O)c1cccc(CCC2(O)CCCCCC2)c1 (stereo not drawn) [Example 16, 1-(3-(3-amino-1-hydroxypropyl)phenethyl)cycloheptanol]	≤ 1 µM	did not show significant effects
NCCC(O)c1cccc(CCC2CCCC2)c1 (stereo not drawn) [Example 17, 3-amino-1-(3-(2-cyclopentylethyl)phenyl)propan-1-ol]	≤ 1 µM	
CCCCCc1cccc(CCCN)c1 [Example 27, 3-(3-pentylphenyl)propan-1-amine]	≤ 1 µM	
CC(C)(C)CCc1cccc(CCCN)c1 [Example 29, 3-(3-(3,3-dimethylbutyl)phenyl)propan-1-amine]	≤ 1 µM	
NCCCc1cccc(CCCCc2ccccc2)c1 [Example 35, 3-(3-(4-phenylbutyl)phenyl)propan-1-amine]	≤ 1 µM	

More lines, now with the values ahead:

IC50 (visual cycle isomerase)	effects on retinoid nuclear receptors (RAR and RxR) [1]	SMILES
≤ 1 µM		CCCC(O)(CCC)CCc1cccc(OCCN)c1 [Example 9, 4-(3-(2-aminoethoxy)phenethyl)heptan-4-ol]
≤ 1 µM		NCCOc1cccc(CCC2(O)CCSCC2)c1 [Example 11, 4-(3-(2-aminoethoxy)phenethyl)tetrahydro-2H-thiopyran-4-ol]
≤ 1 µM	did not show significant effects	NCCOc1cccc(CCC2(O)CCCCC2)c1 [Example 12, 1-(3-(2-aminoethoxy)phenethyl)cyclohexanol]
≤ 1 µM		CCCC(O)(CCC)CCc1cccc(C(O)CCN)c1 (stereo not drawn) [Example 19, 4-(3-(3-amino-1-hydroxypropyl)phenethyl)heptan-4-ol]
≤ 1 µM	did not show significant effects	NCCCc1cccc(CCC2(O)CCCCCC2)c1 [Example 20, 1-(3-(3-aminopropyl)phenethyl)cycloheptanol]
